# Reference: US20130123358A1, “Metabolic Benefits to Butyrate as a Chronic Diet Supplement” (priority 2009, published 2013)
# Where two headings read alike, the source gives them in different places.
# Columns and labels:
# [1] = Butyrate concentration in plasma; format: in vivo; conditions: mouse, oral, 5 % w/w in HFD, butyrate 5% w/w in HFD for 16 weeks
# Experimental: The serum fatty acids including butyrate were examined using a protocol described elsewhere (18), and as described below in Example 10. The fatty acids in feces were determined using a protocol as described by Schwarz (19). Triglyceride and cholesterol were measured in the whole blood with the Cardiochek portable test system.
# The butyrate concentration was analyzed in plasma collected from the butyrate and control groups in mice fed HFD for 16 weeks. In a fasted condition (overnight fast), the butyrate concentration was 7.23±0.93 μg/ml in the butyrate group and 5.71±0.38 μg/ml in the control. […] Data are presented as means±SE (n=6). * P<0.05; ** P<0.001.
# [2] = tested on: C57BL/6J mice on high fat diet; experiment: Hyperinsulinemic-euglycemic clamp; format: in vivo, mouse; conditions: 5% butyrate in HFD 4 weeks
# Experimental: Hyperinsulinemic-euglycemic clamps were performed at the Penn State Mouse Metabolic Phenotyping Center. The clamps were conducted in C57BL/6 mice at 12 weeks of age after 4 weeks on HFD with or without butyrate supplement. Following overnight fast (˜15 hour), a 2-hour hyperinsulinemic-euglycemic clamp was conducted in awake mice with a primed (150 mU/kg body weight) and continuous infusion of human regular insulin (Humulin; Eli Lilly, Indianapolis, Ind.) at a rate of 2.5 mU/kg/min to raise plasma insulin within a physiological range (Kim et al., 2004). Blood samples (20 μl) were collected at 20 min intervals for the immediate measurement of plasma glucose concentration, and 20% glucose was infused at variable rates to maintain glucose at basal concentrations. Basal and insulin-stimulated whole body glucose turnover were estimated with a continuous infusion of [3-^3H]glucose (PerkinElmer, Boston, Mass.) for 2 hours prior to the clamps (0.05 μCi/min) and throughout the clamps (0.1 μCi/min), respectively. To estimate insulin-stimulated glucose uptake in individual tissues, 2-deoxy-D-[1-^14C]glucose (2-[^14C]DG) was administered as a bolus (10 μCi) at 75 min after the start of clamps. Blood samples were taken before, during, and at the end of clamps for the measurement of plasma [^3H]glucose, ^3H2O, 2-[^14C]DG concentrations, and/or insulin concentrations. At the end of the clamps, mice were euthanized, and tissues were taken for biochemical and molecular analysis.
# Glucose concentrations during clamps were analyzed using […] plasma by a glucose oxidase method on a Beckman Glucose Analyzer 2 (Beckman, Fullerton, Calif.). Plasma insulin concentrations were measured by ELISA using kits from Alpco Diagnostics (Salem, N.H.). Plasma concentrations of [3-^3H]glucose, 2-[^14C]DG, and ^3H2O were determined following deproteinization of plasma samples as previously described. The radioactivity of ^3H in tissue glycogen was determined by digesting tissue samples in KOH and precipitating glycogen with ethanol. For the determination of tissue 2-[^14C]DG-6-P content, tissue samples were homogenized, and the supernatants were subjected to an ion-exchange column to separate 2-[^14C]DG-6-P from 2-[^14C]DG. Rates of basal hepatic glucose production (HGP) and insulin-stimulated whole body glucose turnover were determined as the ratio of the [^3H]glucose infusion rate to the specific activity of plasma glucose at the end of the basal period and during the final 30 min of clamp, respectively (Kim et al., 2004). Insulin-stimulated rate of HGP during clamp was determined by subtracting the glucose infusion rate from whole body glucose turnover. Insulin-stimulated glucose uptake in individual tissues was assessed by determining the tissue content of 2-[^14C]DG-6-P and plasma 2-[^14C]DG profile.
# Hyperinsulinemic-euglycemic clamps were performed at the Penn State Mouse Metabolic Phenotyping Center. The clamps were conducted in C57BL/6J mice at 12 weeks of age after 4 weeks on HFD with or without a 5% butyrate supplement. Following overnight fast (˜15 hour), a 2-hour hyperinsulinemic-euglycemic clamp was conducted in awake mice with a primed (150 mU/kg body weight) and continuous infusion of human regular insulin (Humulin; Eli Lilly, Indianapolis, Ind.) at a rate of 2.5 mU/kg/min to raise plasma insulin within a physiological range (38). […]
# [3] = tested on: ruminant mammals; conditions: intravenous use, including in the form of tributyrin; cited from earlier work
# [4] = tested on: class I and class II histone deacetylases (HDACs); conditions: cited from earlier work
compound,measurement,setting,value
CCCC(=O)[O-].[Na+] [sodium butyrate],concentration at 16 weeks,"[1]; fed, read-out: butyrate concentration in plasma, fed condition",9400 ± 1360 ng/mL
same,concentration at 16 weeks,"[1]; overnight fast, read-out: butyrate concentration in plasma, fasted condition",7230 ± 930 ng/mL
same,insulin sensitivity in the liver (hepatic glucose production),[2]; clamp,also improved
same,insulin-stimulated glucose uptake in brown adipose tissue,[2]; clamp,improved
same,insulin-stimulated glucose uptake in white adipose tissue,[2]; clamp,improved
same,insulin-stimulated glucose uptake in muscle,"[2]; clamp, gastrocnemius",improved
same,"glucose infusion rate, increase",[2]; last 40 min of clamps,40%
same,serum glucose and insulin,[3],increase
same,effect on class I and class II HDACs,[4],inhibition
